Where no end group is shown, it is not given here.
Experiments:
[1] = humans, including patients with Cystic Fibrosis; cited from earlier work
[2] = literature (McNulty 2003); cited from earlier work
[3] = liposomes; bind PtdE at equal-molar ratio; cited from earlier work
[4] = Cysteine challenge stability test; assay type: physicochemical; conditions: cysteine-to-Duramycin ratio of 100:1
Experimental: HPLC method 2. Jupiter C18 column (90 Å pore size, 250×4.6 mm) was used with a buffered mobile phase system consisting of phosphate buffer (10 mM sodium phosphate, pH 6.7) and acetonitrile at a flow rate of 1.0 ml/min at room temperature. A baseline of 5 min at 90% buffer A (phosphate buffer, pH6.7) and 10% buffer B (acetonitrile) was followed by a linear gradient to 10% buffer A and 90% buffer B in 30 min. The level of radioactivity in the HPLC elute was monitored by gamma counting at an energy window of 140±15 keV.
HYNIC-Duramycin was labeled with ^99mTc using the tricine-phosphine co-ligand system. Specifically, 15 μg of HYNIC-Duramycin was mixed with 40 mg of tricine, 1 mg of TPPTS and 20 μg SnCl2 in 0.8 ml at pH 5.3. The labeling was initiated with the addition of about 1 mCi of ^99mTc. The incubation was allowed to proceed for 40 min at room temperature. The final radiopharmaceutical, ^99mTc-HYNIC-Duramycin, was analyzed and purified using HPLC method 2. After purification, acetonitrile was removed by evaporation under nitrogen, and ^99mTc-HYNIC-Duramycin was reconstituted in saline for usage. ^99mTc-HYNIC-Duramycin^1 was synthesized in the same fashion. For stability tests, cysteine challenge was carried out at a cysteine-to-^99mTc-Duramycin ratio of 100 to 1, in 0.01 mM phosphate buffer (pH 6.8) for 2 hr at room temperature. The sample was analyzed with radioHPLC (method 2).

[5] = molecular target: rat serum albumin (rat, UniProt P02770 25-608); test: radioHPLC analysis of the tracer in the presence of rat serum albumin
rat serum albumin, sequence (P02770 25-608 limits assumed): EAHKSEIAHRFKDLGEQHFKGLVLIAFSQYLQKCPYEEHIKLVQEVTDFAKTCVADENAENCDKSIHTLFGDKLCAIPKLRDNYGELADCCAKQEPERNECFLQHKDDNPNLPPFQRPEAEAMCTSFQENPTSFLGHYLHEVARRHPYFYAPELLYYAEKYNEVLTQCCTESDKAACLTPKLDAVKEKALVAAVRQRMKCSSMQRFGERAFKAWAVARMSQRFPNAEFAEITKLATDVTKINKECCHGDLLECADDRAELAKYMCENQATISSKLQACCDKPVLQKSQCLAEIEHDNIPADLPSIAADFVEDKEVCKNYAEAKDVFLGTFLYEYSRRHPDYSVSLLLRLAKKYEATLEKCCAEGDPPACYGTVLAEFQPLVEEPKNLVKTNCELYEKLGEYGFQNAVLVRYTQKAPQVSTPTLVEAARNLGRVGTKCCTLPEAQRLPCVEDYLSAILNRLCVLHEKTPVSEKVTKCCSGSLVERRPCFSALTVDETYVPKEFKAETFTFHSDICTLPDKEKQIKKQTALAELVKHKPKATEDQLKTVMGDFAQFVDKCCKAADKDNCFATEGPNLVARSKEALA

19-amino acid peptide produced by Streptoverticillium cinnamoneus, CKQSCSFGPFTFVCDGNTK (SEQ ID NO 1), binds PtdE [Duramycin]
toxicity and immunogenicity in clinical testing [1]: lack of significant toxicity and immunogenicity
hepatic retention [2]: retained for an extended duration (e.g., many days) in the liver without complete washout
dissociation constant [3]: nanomolar range
radioactivity associated with the peptide diminished/reduced in cysteine challenge [4]: 90%

homolog of Duramycin with Arg replacing Lys at position two, CRQSCSFGPFTFVCDGNTK (SEQ ID NO 2) (not fully specified (bridges); ends and bridges not checked; also: lanthionine bridges, places not given here; listed as Streptoverticillium cinnamoneus) [Cinnamycin]
dissociation constant [3]: nanomolar range

B1: ^99mTc-HYNIC-Duramycin (peptide)
peptide: CKQSCSFGPFTFVCDGNTK
modifications: thioether bonds between positions 1-18, 4-14 and 5-11; amide bond between positions 6 and 19; one HYNIC (6-hydrazinopyridine-3-carboxylic acid) moiety on either Cys-1 or Lys-2, chelating 99mTc with tricine and TPPTS co-ligands
notes: Lantibiotic peptide, cross-linked; also called 99mTc-Duramycin; radiolabeled Duramycin
binding result [5]: no binding

— US8778303B2, “99mTc-labeled 19 amino acid containing peptide for use as phosphatidylethanolamine binding molecular probe and radiopharmaceutical” (The Medical College of Wisconsin, Inc., priority 2008, dated 2014)
